The values that follow are results of earlier work, collected in US6468963B1, “Methods and formulations for reducing toxicity associated with diabetes treatments” (BioNumerik Pharmaceuticals, Inc., priority 2000, dated 2002).

In data set [1] the test system is humans. The note with it: doses exceeding 40 g/m^2.
Data set [2] has as its system dogs. The note with it: doses higher than 3750 mg/kg (accepted LD50 for common table salt).
Data set [3] has as its system mice. The note with it: doses higher than 3750 mg/kg (accepted LD50 for common table salt).
The conditions of data set [4]: accepted value; species not stated.

Structures are written as SMILES.

Take `O=S(=O)([O-])CCSSCCS(=O)(=O)[O-].[Na+].[Na+]` [Dimesna, disodium 2,2′-dithiobis ethane sulfonate]: the adverse effects entry in data set [1], in data set [2] and in data set [3] was “no adverse effects” throughout.

With `[Cl-].[Na+]` [common table salt], in data set [4], the 50% lethal dose (LD50) (as a rule, the dose expected to kill half of the subjects tested) was 3750 mg/kg.
